{
  "source": "paper PMC5428017",
  "about": "“Targeting to the non-genomic activity of retinoic acid receptor-gamma by acacetin in hepatocellular carcinoma” (Scientific Reports, 2017)",
  "key": {"RARβ": {"molecular_target": "T1, RARβ (Homo sapiens, UniProt P10826)", "T1 construct": "gene RARB; RARβ LBD", "T1 sequence (P10826 183-417 limits assumed)": "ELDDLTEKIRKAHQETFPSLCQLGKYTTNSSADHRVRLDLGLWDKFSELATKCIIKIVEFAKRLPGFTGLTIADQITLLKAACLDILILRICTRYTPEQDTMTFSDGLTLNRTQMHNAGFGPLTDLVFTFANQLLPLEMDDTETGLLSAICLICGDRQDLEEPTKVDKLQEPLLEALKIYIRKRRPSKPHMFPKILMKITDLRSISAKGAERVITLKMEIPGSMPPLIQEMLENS", "experiment": "competitive radioligand displacement of [3H]atRA from RARβ LBD", "format": "binding"}, "[1]": {"molecular_target": "T2, retinoic acid receptor-γ (RARγ) (Homo sapiens, UniProt P13631, R278A)", "T2 construct": "gene RARG; Gal4-RARγ/R278A", "T2 sequence (P13631 185-419 R278A limits assumed)": "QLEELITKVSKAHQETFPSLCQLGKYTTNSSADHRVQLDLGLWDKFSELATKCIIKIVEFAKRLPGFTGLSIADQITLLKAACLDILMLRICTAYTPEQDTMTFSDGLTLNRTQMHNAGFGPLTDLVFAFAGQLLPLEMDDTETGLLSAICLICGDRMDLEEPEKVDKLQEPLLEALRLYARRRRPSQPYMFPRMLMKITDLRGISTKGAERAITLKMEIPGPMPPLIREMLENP", "experiment": "Gal4-RARγ luciferase reporter in HEK293T cells, […] atRA", "format": "cell-based", "conditions": "0.1 µM"}, "RARα": {"molecular_target": "T3, RARα (Homo sapiens, UniProt P10276)", "T3 construct": "gene RARA; RARα LBD", "T3 sequence (P10276 183-417 limits assumed)": "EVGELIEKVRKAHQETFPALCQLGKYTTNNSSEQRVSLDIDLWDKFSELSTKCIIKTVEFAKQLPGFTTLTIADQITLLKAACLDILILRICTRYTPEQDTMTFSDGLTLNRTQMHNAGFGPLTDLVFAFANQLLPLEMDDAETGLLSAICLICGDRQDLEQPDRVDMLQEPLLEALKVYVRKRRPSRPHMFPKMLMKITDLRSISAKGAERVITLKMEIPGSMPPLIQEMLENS", "experiment": "competitive radioligand displacement of [3H]atRA from RARα LBD", "format": "binding"}, "[2]": {"molecular_target": "T4, retinoic acid receptor-γ (RARγ) (Homo sapiens, UniProt P13631)", "T4 construct": "gene RARG; RARγ LBD", "T4 sequence (P13631 185-419 limits assumed)": "T2 sequence (P13631 185-419 R278A limits assumed) with A94R", "experiment": "competitive radioligand displacement of [3H]atRA from purified RARγ LBD; supported by GFP-RARγ fluorescence quenching in cells and reporter antagonism", "format": "binding"}},
  "note": "Numbering of substitutions follows the chain as printed.",
  "data": [
    {"smiles": "CC1=C(/C=C/C(C)=C/C=C/C(C)=C/C(=O)O)C(C)(C)CCC1", "note": "[atRA]", "values": [
      {"measurement": "competitive radioligand displacement of [3H]atRA from RARβ LBD", "setting": "RARβ", "result": "both [^3H]atRA-bound complexes could be displaced by unlabeled atRA but not by acacetin"},
      {"measurement": "Gal4-RARγ luciferase reporter in HEK293T cells, 10^-7 M atRA", "setting": "[1]", "result": 22, "unit": "fold activation"},
      {"measurement": "competitive radioligand displacement of [3H]atRA from RARα LBD", "setting": "RARα", "result": "both [^3H]atRA-bound complexes could be displaced by unlabeled atRA but not by acacetin"}
    ]},
    {"smiles": "COc1ccc(-c2cc(=O)c3c(O)cc(O)cc3o2)cc1", "note": "[acacetin, 5,7-dihydroxy-4′-methoxyflavone]", "values": [
      {"measurement": "IC50", "setting": "[2]", "result": 12.8, "unit": "µM"}
    ]}
  ]
}
